# Like-named read-outs stand apart in the source and are kept apart here.
# Experiments:
# [1] = test system: grape downy mildew fungus; assay: Test Example 9: grape downy mildew, foliage application then inoculation; conditions: grape seedling
# Protocol: (§1) Each of plastic pots was filled with sandy loam and sown with grape (Berry A), followed by growing in a greenhouse for 40 days. […] Then, the young seedling was inoculated with a suspension of zoosporangia of grape downy mildew fungus by spraying. After the inoculation, the young seedling was allowed to stand overnight at 23° C. and a high humidity and then grown in a greenhouse for 7 days, after which the infection rate (%) was investigated.
# [2] = test system: gray mold fungi tolerant to benzimidazole type fungicidal compounds; assay: Test Example 12: cucumber gray mold, benzimidazole-tolerant (resistant) fungus; conditions: cucumber seedling
# Protocol: Each of plastic pots was filled with sandy loam and sown with cucumber (Sagamihanjiro), followed by growing in a greenhouse for 14 days. […] After air-drying, each of gray mold fungi sensitive and tolerant, respectively, to benzimidazole type fungicidal compounds was inoculated on the surfaces of leaves of the young seedling, and the young seedling was grown in the dark at 10° C. and a high humidity for 4 days, after which the infection rate (%) was investigated.
# [3] = test system: apple scab fungus; assay: Test Example 13: apple scab, foliage application then inoculation; format: in vivo, Venturia inaequalis; conditions: apple seedling
# [4] = test system: gray mold fungi sensitive to benzimidazole type fungicidal compounds; assay: Test Example 12: cucumber gray mold, benzimidazole-sensitive fungus; conditions: cucumber seedling
# Protocol: Each of plastic pots was filled with sandy loam and sown with cucumber (Sagamihanjiro), followed by growing in a greenhouse for 14 days. A wettable powder of test agents prepared according to Formulation Example 41 was diluted to a predetermined concentration with water, and foliage application of the dilution was carried out so as to adhere the dilution sufficiently to the surfaces of leaves of the grown cucumber young seedling. After air-drying, each of gray mold fungi sensitive and tolerant, respectively, to benzimidazole type fungicidal compounds was inoculated on the surfaces of leaves of the young seedling, and the young seedling was grown in the dark at 10° C. and a high humidity for 4 days, after which the infection rate (%) was investigated.
# [5] = test system: apple scab fungus; assay: Test Example 8: apple scab, foliage application then inoculation; format: in vivo, Venturia inaequalis; conditions: apple seedling
# [6] = test system: grape downy mildew fungus; assay: Test Example 6: grape downy mildew, foliage application then inoculation; conditions: grape seedling
# Protocol: as §1
# [7] = test system: tomato late blight fungus; format: in vivo, Phytophthora infestans; conditions: tomato seedling
# [8] = test system: grape downy mildew fungus; assay: Test Example 7: grape downy mildew, foliage application then inoculation; conditions: grape seedling
# Protocol: as §1
# [9] = test system: gray mold fungus; assay: Test Example 3: cucumber gray mold, foliage application before inoculation; conditions: cucumber seedling, applied before inoculation, 4 days
# Protocol: Each of plastic pots was filled with sandy loam and sown with cucumber (Sagamihanjiro), followed by growing in a greenhouse for 14 days. A wettable powder of test agents prepared according to Formulation Example 11 was diluted to a predetermined concentration with water, and foliage application of the dilution was carried out so as to adhere the dilution sufficiently to the surfaces of leaves of the grown cucumber young seedling. After air-drying, gray mold fungus was inoculated on the surfaces of leaves of the young seedling, and the young seedling was grown in the dark at 10° C. and a high humidity for 4 days, after which the infection rate (%) was investigated.
# [10] = test system: gray mold fungi sensitive to benzimidazole type fungicidal compounds; assay: Test Example 17: cucumber gray mold, benzimidazole-sensitive fungus; conditions: cucumber seedling
# Protocol: (§2) Each of plastic pots was filled with sandy loam and sown with cucumber (Sagamihanjiro), followed by growing in a greenhouse for 14 days. A wettable powder of test agents prepared according to Formulation Example 59 was diluted to a predetermined concentration with water, and foliage application of the dilution was carried out so as to adhere the dilution sufficiently to the surfaces of leaves of the grown cucumber young seedling. After air-drying, each of gray mold fungi sensitive and tolerant, respectively, to benzimidazole type fungicidal compounds was inoculated on the surfaces of leaves of the young seedling, and the young seedling was grown in the dark at 10° C. and a high humidity for 4 days, after which the infection rate (%) was investigated.
# [11] = test system: tomato late blight fungus (Phytophthora infestans); format: in vivo; conditions: tomato plant, 1 week at 24° C.
# [12] = test system: gray mold fungus; assay: Test Example 11: cucumber gray mold, foliage application before inoculation; conditions: cucumber seedling
# Protocol: Each of plastic pots was filled with sandy loam and sown with cucumber (Sagamihanjiro), followed by growing in a greenhouse for 14 days. A wettable powder of test agents prepared according to Formulation Example 35 was diluted to a predetermined concentration with water, and foliage application of the dilution was carried out so as to adhere the dilution sufficiently to the surfaces of leaves of the grown cucumber young seedling. After air-drying, gray mold fungus was inoculated on the surfaces of leaves of the young seedling, and the young seedling was grown in the dark at 10° C. and a high humidity for 4 days, after which the infection rate (%) was investigated.
# [13] = test system: grape powdery mildew fungus (Uncinula necator); assay: Test Example 16: grape powdery mildew, spray then inoculation; format: in vivo; conditions: grape plant, 3 weeks at 24° C.
# [14] = test system: grape powdery mildew fungus (Uncinula necator); assay: Test Example 14: grape powdery mildew, spray then inoculation; format: in vivo; conditions: grape plant, 3 weeks at 24° C.
# [15] = test system: tomato late blight fungus; format: in vivo, Phytophthora infestans; conditions: tomato seedling; remark: listed apart in the source
# [16] = test system: gray mold fungus; assay: Test Example 4: cucumber gray mold, foliage application after inoculation; conditions: cucumber seedling, applied after inoculation
# Protocol: Each of plastic pots was filled with sandy loam and sown with cucumber (Sagamihanjiro), followed by growing in a greenhouse for 14 days. Gray mold fungus was inoculated on the surfaces of leaves of the grown cucumber young seedling, and the young seedling was grown in the dark at 10° C. and a high humidity for 2 days and then at a temperature of 23° C. for 3 days. A wettable powder of test agents prepared according to Formulation Example 11 was diluted to a predetermined concentration with water, and foliage application of the dilution was carried out so as to adhere the dilution sufficiently to the surfaces of leaves of the cucumber young seedling. After the spraying, the young seedling was grown in the dark at 10° C. and a high humidity for 3 days, and then the infection rate (%) was investigated.
# [17] = test system: gray mold fungi tolerant to benzimidazole type fungicidal compounds; assay: Test Example 17: cucumber gray mold, benzimidazole-tolerant (resistant) fungus; conditions: cucumber seedling
# Protocol: as §2
# [18] = test system: tomato late blight fungus (Phytophthora infestans); format: in vivo; conditions: tomato plant, 1 week at 24° C.; remark: listed apart in the source
# [19] = test system: grape downy mildew fungus (Plasmopara viticola); assay: Test Example 2: grape downy mildew, spray then inoculation, infection rate; format: in vivo; conditions: grape plant, 1 week at 24° C.
# Excerpt: A grape plant (cultivar: Berry A) was planted in each pot and was sprayed with a sufficient volume of a dilution with a predetermined concentration of a wettable powder obtained according to Formulation Example 5, after the plant put out a fourth leaf.
compound,measurement,setting,value
"COC(=O)[C@H](C)N(C(=O)Cc1ccccc1)c1c(C)cccc1C [Benalaxyl, methyl N-(2,6-dimethylphenyl)-N-(phenylacetyl)alaninate]",Infection rate (%),[1]; 1 ppm,25%
"CCCCNC(=O)n1c(NC(=O)OC)nc2ccccc21 [Benomyl, methyl 1-(butylcarbamoyl)-2-benzimidazole-carbamate, reference compound]",Infection rate (%) Resistant fungus,[2]; 10 ppm,100%
same,Infection rate (%),[3]; 20 ppm,25%
same,Infection rate (%) Sensitive fungus,[4]; 10 ppm,20%
"O=C1C2CC=CCC2C(=O)N1SC(Cl)(Cl)Cl (stereo not drawn) [Captan, 1,2,3,6-tetrahydro-N-(trichloromethylthio)phthalimide, reference compound]",Infection rate (%),[5]; 300 ppm,20%
"N#Cc1c(Cl)c(Cl)c(Cl)c(C#N)c1Cl [Chlorothalonil, tetrachloroisophthalonitrile, reference compound]",Infection rate (%),[6]; 30 ppm,20%
same,Infection rate (%),[7]; 40 ppm,20%
"CON=C(C(=O)OC)c1ccccc1COc1ccccc1C [Compound (Ia), methyl α-methoxyimino-2-[(2-methylphenoxy)methyl]phenylacetate]",Infection rate (%),[8]; 10 ppm,20%
same,Infection rate (%),[6]; 5 ppm,20%
same,Infection rate (%) Resistant fungus,[2]; 10 ppm,30%
same,Infection rate (%),[3]; 1 ppm,20%
same,Infection rate (%),[7]; 50 ppm,25%
same,Infection rate (%),[9]; 10 ppm,30%
same,Infection rate (%) Sensitive fungus,[10]; 10 ppm,30%
same,Infection rate (%),[1]; 20 ppm,25%
same,Infection rate (%),[11]; 10 ppm,25%
same,Infection rate (%),[5]; 0.8 ppm,20%
same,Infection rate (%),[12]; 10 ppm,30%
same,Infection rate (%),[13]; 10 ppm,30%
same,Infection rate (%),[14]; 1 ppm,20%
same,Infection rate (%),[15]; 100 ppm,25%
same,Infection rate (%) Sensitive fungus,[4]; 10 ppm,30%
same,Infection rate (%),[16]; 10 ppm,30%
same,Infection rate (%) Resistant fungus,[17]; 10 ppm,30%
same,Infection rate (%),[18]; 10 ppm,25%
same,Infection rate (%),[19]; 10 ppm,30%
"CNC(=O)C(=NOC)c1ccccc1COc1cccc(Cl)c1 [Compound (Ic), N-methyl-α-methoxyimino-2-[(3-chlorophenoxy)methyl]phenylacetamide]",Infection rate (%),[8]; 10 ppm,25%
same,Infection rate (%),[6]; 5 ppm,25%
same,Infection rate (%) Resistant fungus,[2]; 200 ppm,20%
same,Infection rate (%),[3]; 1 ppm,30%
same,Infection rate (%),[7]; 40 ppm,20%
same,Infection rate (%),[9]; 200 ppm,20%
same,Infection rate (%) Sensitive fungus,[10]; 200 ppm,20%
same,Infection rate (%),[1]; 100 ppm,20%
same,Infection rate (%),[11]; 10 ppm,25%
same,Infection rate (%),[5]; 5 ppm,25%
same,Infection rate (%),[12]; 200 ppm,20%
same,Infection rate (%),[13]; 10 ppm,25%
same,Infection rate (%),[14]; 1 ppm,20%
same,Infection rate (%),[15]; 40 ppm,20%
same,Infection rate (%) Sensitive fungus,[4]; 200 ppm,20%
same,Infection rate (%),[16]; 200 ppm,20%
same,Infection rate (%) Resistant fungus,[17]; 200 ppm,20%
same,Infection rate (%),[18]; 10 ppm,25%
same,Infection rate (%),[19]; 10 ppm,25%
"CNC(=O)C(=NOC)c1ccccc1COc1ccc(Cl)cc1Cl [Compound (Id), N-methyl-α-methoxyimino-2-[(2,4-dichlorophenoxy)methyl]phenylacetamide]",Infection rate (%),[8]; 10 ppm,20%
same,Infection rate (%),[6]; 5 ppm,25%
same,Infection rate (%) Resistant fungus,[2]; 200 ppm,20%
same,Infection rate (%),[3]; 5 ppm,20%
same,Infection rate (%),[7]; 40 ppm,20%
same,Infection rate (%),[9]; 200 ppm,20%
same,Infection rate (%) Sensitive fungus,[10]; 200 ppm,20%
same,Infection rate (%),[1]; 40 ppm,20%
same,Infection rate (%),[11]; 10 ppm,25%
same,Infection rate (%),[5]; 5 ppm,25%
same,Infection rate (%),[12]; 200 ppm,20%
same,Infection rate (%),[13]; 10 ppm,25%
same,Infection rate (%),[14]; 1 ppm,25%
same,Infection rate (%),[15]; 40 ppm,20%
same,Infection rate (%) Sensitive fungus,[4]; 200 ppm,20%
same,Infection rate (%),[16]; 200 ppm,20%
same,Infection rate (%) Resistant fungus,[17]; 200 ppm,20%
same,Infection rate (%),[18]; 10 ppm,25%
same,Infection rate (%),[19]; 10 ppm,25%
"[Cl-].[Cu+2].[Cu+2].[OH-].[OH-].[OH-] [Copper oxychloride, reference compound]",Infection rate (%),[13]; 500 ppm,30%
same,Infection rate (%),[18]; 500 ppm,25%
"[Cu+2].[O-]c1cccc2cccnc12.[O-]c1cccc2cccnc12 [Copper oxyquinolinolate, copper oxyquinolinolate (8-hydroxyquinolinate), reference compound]",Infection rate (%),[13]; 200 ppm,25%
same,Infection rate (%),[18]; 50 ppm,25%
"CCNC(=O)NC(=O)C(C#N)=NOC [Cymoxanil, 2-cyano-N-[ethylaminocarbonyl]-2-(methoxyimino)acetamide]",Infection rate (%),[1]; 40 ppm,20%
"CCOc1ccc(NC(=O)OC(C)C)cc1OCC [Diethofencarb, isopropyl 3,4-diethoxyphenylcarbamate, reference compound]",Infection rate (%) Sensitive fungus,[10]; 10 ppm,100%
same,Infection rate (%) Resistant fungus,[17]; 10 ppm,20%
"O=[N+]([O-])c1cc(C(F)(F)F)c(Cl)c([N+](=O)[O-])c1Nc1ncc(C(F)(F)F)cc1Cl [Fluazinam, 3-chloro-N-(3-chloro-5-trifluoromethyl-2-pyridyl)-α,α,α-trifluoro-2,6-dinitro-p-toluidine, reference compound]",Infection rate (%),[12]; 1 ppm,25%
"N#Cc1c[nH]cc1-c1cccc2c1OC(F)(F)O2 [Fludioxonil, 4-(2,2-difluoro-1,3-benzodioxol-4-yl)-1H-pyrrole-3-carbonitrile, reference compound]",Infection rate (%),[12]; 0.5 ppm,20%
"O=C1c2ccccc2C(=O)N1SC(Cl)(Cl)Cl [Folpet, N-(trichloromethylthio)phthalimide, reference compound]",Infection rate (%),[8]; 200 ppm,20%
"CCO[PH](=O)O [Fosetyl aluminum, ethyl hydrogenphosphonate]",Infection rate (%),[1]; 100 ppm,25%
"CC#Cc1cc(C)nc(Nc2ccccc2)n1 [Mepanipyrim, 2-anilino-4-methyl-6-(1-propynyl)pyrimidine, reference compound]",Infection rate (%),[12]; 5 ppm,20%
"COCC(=O)N(c1c(C)cccc1C)[C@@H](C)C(=O)OC [Metalaxyl, methyl N-(2,6-dimethylphenyl)-N-(methoxyacetyl)-alaninate, reference compound]",Infection rate (%),[1]; 1 ppm,20%
same,Infection rate (%),[15]; 5 ppm,20%
"COCC(=O)N(c1c(C)cccc1C)N1CCOC1=O [Oxadixyl, 2-methoxy-N-(2-oxo-1,3-oxazolidin-3-yl)aceto-2′,6′-xylidide]",Infection rate (%),[1]; 5 ppm,20%
"CC12CC1(C)C(=O)N(c1cc(Cl)cc(Cl)c1)C2=O (stereo not drawn) [Procymidone, N-(3,5-dichlorophenyl)-1,2-dimethylcyclopropane-1,2-dicarboxyimide, reference compound]",Infection rate (%),[9]; 10 ppm,25%
same,Infection rate (%),[16]; 10 ppm,25%
"Cc1cc(C)nc(Nc2ccccc2)n1 [Pyrimetanil, 2-anilino-4,6-dimethylpyrimidine, reference compound]",Infection rate (%),[12]; 10 ppm,20%
"S1SSSSSSS1 [Sulfur, sulfur, reference compound]",Infection rate (%),[14]; 500 ppm,20%
"c1ccc2[nH]c(-c3cscn3)nc2c1 [Thiabendazole, 2-(4′-thiazolyl)benzimidazole, reference compound]",Infection rate (%) Resistant fungus,[2]; 30 ppm,100%
same,Infection rate (%) Sensitive fungus,[4]; 30 ppm,25%
"COC(=O)NC(=S)Nc1ccccc1NC(=S)NC(=O)OC [Thiophanate-methyl, 1,2-bis(3-methoxycarbonyl-2-thioureido)benzene, reference compound]",Infection rate (%) Resistant fungus,[2]; 10 ppm,100%
same,Infection rate (%),[3]; 10 ppm,20%
same,Infection rate (%) Sensitive fungus,[4]; 10 ppm,25%
Mancozeb [reference compound],Infection rate (%),[11]; 50 ppm,25%
same,Infection rate (%),[19]; 50 ppm,25%
